Laboratory results from patent publication US8426422B2, “Apoptosis-inducing agents for the treatment of cancer and immune and autoimmune diseases” (Abbvie Inc., priority 2009, dated 2013).

Biological target: GST-Bcl-2 (Homo sapiens, UniProt P10415)
Assay: Time Resolved-Fluorescence Resonance Energy Transfer (TR-FRET) Bcl-2 binding assay
Settings: GST-Bcl-2 1 nM, F-Bak peptide probe 100 nM, Tb-anti-GST 1 nM; 3 hours at room temperature; Ki by Wang's equation
Method: Determination of the utility of compounds having Formula (I) as binders to and inhibitors of anti-apoptotic Bcl-2 proteins was performed using the Time Resolved-Fluorescence Resonance Energy Transfer (TR-FRET) Assay. Tb-anti-GST antibody was purchased from Invitrogen (Catalog No. PV4216).
Representative compounds were serially diluted in dimethyl sulfoxide (DMSO) starting at 50 μM (2x starting concentration; 10% DMSO) and 10 μL were transferred into a 384-well plate. The samples are then mixed on a shaker for 1 minute and incubated for an additional 3 hours at room temperature. For each assay, the probe/antibody and protein/probe/antibody were included on each assay plate as negative and positive controls, respectively. Fluorescence was measured on the ENVISION plate reader (Perkin Elmer) using a 340/35 nm excitation filter and 520/525 (F-Bak peptide) and 495/510 nm (Tb-labeled […] antibody) emission filters. Inhibition constants (Ki) are shown in TABLE 2 below and were determined using Wang's equation (Wang Z.-X. An Exact Mathematical Expression For Describing Competitive Binding Of Two Different Ligands To A Protein Molecule. FEBS Lett. 1995, 360:111-4).
The inhibition constant (Ki) is the dissociation constant of an enzyme-inhibitor complex or a protein/small molecule complex, wherein the small molecule is inhibiting binding of one protein to another protein. So a large Ki value indicates a low binding affinity and a small Ki value indicates a high binding affinity.
The compounds are therefore expected to have utility in treatment of diseases during which anti-apoptotic Bcl-2 protein is expressed.

Sequence of GST-Bcl-2 (P10415 whole entry): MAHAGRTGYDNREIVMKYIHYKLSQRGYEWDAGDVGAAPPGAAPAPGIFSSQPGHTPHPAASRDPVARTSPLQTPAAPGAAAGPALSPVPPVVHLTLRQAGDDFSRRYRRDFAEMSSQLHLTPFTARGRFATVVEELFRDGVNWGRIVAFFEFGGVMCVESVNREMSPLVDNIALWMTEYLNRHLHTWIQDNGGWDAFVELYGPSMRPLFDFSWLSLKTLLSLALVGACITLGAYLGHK

O=C(NS(=O)(=O)c1cccc([N+](=O)[O-])c1)c1ccc(N2CCN(Cc3ccccc3-c3ccc(Cl)cc3)CC2)cc1 [Example 5, 4-{4-[(4′-chloro-1,1′-biphenyl-2-yl)methyl]piperazin-1-yl}-N-[(3-nitrophenyl)sulfonyl]benzamide]
Ki: 185 nM

O=C(NS(=O)(=O)c1ccc(Br)cc1)c1ccc(N2CCN(Cc3ccccc3-c3ccc(Cl)cc3)CC2)cc1 [Example 11, N-[(4-bromophenyl)sulfonyl]-4-{4-[(4′-chloro-1,1′-biphenyl-2-yl)methyl]piperazin-1-yl}benzamide]
Ki: 208 nM

O=C(NS(=O)(=O)c1ccc([N+](=O)[O-])cc1)c1ccc(N2CCN(Cc3ccccc3-c3ccc(Cl)cc3)CC2)cc1Oc1ccccc1 [Example 22, 4-{4-[(4′-chloro-1,1′-biphenyl-2-yl)methyl]piperazin-1-yl}-N-[(4-nitrophenyl)sulfonyl]-2-phenoxybenzamide]
Ki: 17.3 nM

O=C(NS(=O)(=O)c1ccc([N+](=O)[O-])cc1)c1ccc(N2CCN(Cc3ccccc3-c3ccc(Cl)cc3)CC2)cc1 [Example 16, 4-{4-[(4′-chloro-1,1′-biphenyl-2-yl)methyl]piperazin-1-yl}-N-[(4-nitrophenyl)sulfonyl]benzamide]
Ki: 273 nM
